Reference: patent US20110177155A1, “METHODS OF DELIVERY OF AGENTS TO LEUKOCYTES AND ENDOTHELIAL CELLS” (IMMUNE DISEASE INSTITUTE, INC., priority 2007, published 2011)

Columns and labels:
[1] = tested on: siRNA-mediated mRNA degradation; details: cited from earlier work
[2] = tested on: INF-β, OAS1 and STAT1; test: Interferon assay (quantitative RT-PCR of IFN-responsive genes in splenocytes); format: cell-based, mouse
Experimental: Spleenocytes (1×10^6 cells/ml) were mock treated or treated with β7 It-sNP and luciferase-siRNA (1000 pmol) or 5 μg/ml poly (I:C). After 48 h RNA was isolated and analyzed by quantitative RT-PCR for induction of IFN or interferon responsive genes as described below.
Total RNA (1 μg) isolated using RNeasy RNA isolation kit (Qiagen) or for tissues, RNAlater RNA stabilization reagent was used followed by RNeasy fibrous tissue mini kit (Qiagen) and reverse transcribed using Superscript III (Invitrogen) and random hexamers, according to the manufacturer's protocol. […] SYBR green (Molecular Probes) was used to detect PCR products. All reactions were done in a 25 μl reaction volume in triplicate. Primers for mouse GAPDH, STAT1, OAS1 and INF β were previously described (Song et al., 2005). The following primer pairs have been used: IL-12p40: Forward: 5′-[…]-3′ (SEQ ID NO:9); Reverse: 5′-[…]-3′ (SEQ ID NO:10); TNF α: Forward 5′-[…]-3′ (SEQ ID NO:11), Reverse 5′-[…]-3′ (SEQ ID NO:12); Cyclin D1: Forward 5′-CTTCCTCTCCAAAATGCCAG-3′ (SEQ ID NO:13), Reverse 5′-AGAGATGGAAGGGGGAAAGA-3′ (SEQ ID NO:14). PCR parameters consisted of 5 min of Taq activation at 95° C., followed by 40 cycles of PCR at 95° C.×20 sec, 60° C.×30 sec, and 69° C.×20 sec. Standard curves were generated and the relative amount of target gene mRNA was normalized to GAPDH mRNA. […]

Molecule | enhancement of siRNA-mediated mRNA degradation ([1]; with siRNA) | effect in mRNA degradation by itself ([1]; without siRNA) | induction of interferon-responsive genes (IRG: INF-β, OAS1, STAT1 mRNA) [2]
CCn1cc(C(=O)O)c(=O)c2cc(F)c(N3CCNCC3)nc21 [Enoxacin] | enhances siRNA-mediated degradation | essentially no effect | –
poly (I:C) | – | – | induced
